These results are taken from BindingDB's records for PubMed 33077264 (Menoufia University, 2021).

For the assay, the target named is Lysine-specific histone demethylase 1A (Homo sapiens, UniProt O60341). The assay is described as follows: Inhibition of N-terminal GST tagged LSD1 (residues 171 - 852) (unknown origin) overexpressed in Escherichia coli using ARTK(Me)2QTARKSTGGKAPRKQLAas substrate incubated for 20 mins by spectrophotometric analysis.

For the molecule `Nc1ccccc1NC(=O)c1ccc(CCCC(=O)Nc2ccc(C3CC3N)cc2)cc1` (stereo unspecified), half-maximal inhibition (IC50) required 330 nM.
